{"source": "patent US12239413B2", "about": "“2D material detector for activity monitoring of single living micro-organisms and nano-organisms” (SOUNDCELL HOLDING B.V., priority 2019, dated 2025)", "key": {"E. coli bacteria [1]": {"tested_on": "E. coli bacteria", "assay": "Motion of suspended single layer CVD graphene with E. coli droplet, antibiotic susceptibility", "type": "cell-based", "settings": "single layer chemical vapour deposited graphene, Lysogeny broth droplet", "experimental": "In the embodiment of FIG. 2 a red helium-neon laser 114 is directed through optical components 115 on the 2D material layer 102 which is placed in a controlled humidity chamber 116. The intensity of the reflected light from the chip 109 is altered by the motion of the micro-organism 105 in the liquid droplet 111 that in turn moves the suspended 2D material 102. This intensity is then measured by a photodiode 117 connected to an oscilloscope 118. In one example a liquid droplet 111 containing micro-organism E. coli bacteria 105 and nutrition Lysogeny broth solution 112 has been dispensed on the sample receiver 101 comprising an array of single layer chemical vapour deposited graphene as the inert suspended layer 102. The motion is read out using the measurement system described in FIG. 2. The motion of the suspended layer is traced in a timeframe of a few seconds in the presence and absence of chemicals 113 and micro-organisms 105."}, "E. coli bacteria [2]": {"tested_on": "E. coli bacteria", "assay": "Motion of suspended silanized exfoliated 10 nm few layer graphene with adhered E. coli, antibiotic susceptibility", "type": "cell-based", "experimental": "In the embodiment of FIG. 2 a red helium-neon laser 114 is directed through optical components 115 on the 2D material layer 102 which is placed in a controlled humidity chamber 116. The intensity of the reflected light from the chip 109 is altered by the motion of the micro-organism 105 in the liquid droplet 111 that in turn moves the suspended 2D material 102. This intensity is then measured by a photodiode 117 connected to an oscilloscope 118. In another example a liquid droplet 111 containing micro-organism E. coli bacteria 105 and nutrition Lysogeny broth solution 112 has been dispensed on the sample receiver 101 comprising an array of silanized natural crystal exfoliated 10 nm few layer thick graphene as the suspended material 102. FIGS. 4a, 4b and 4c show the time traces of the suspended layer in a timeframe of twelve minutes."}}, "data": [{"smiles": "O=C(N[C@H](CO)[C@H](O)c1ccc([N+](=O)[O-])cc1)C(Cl)Cl", "note": "[Chloramphenicol]", "values": [{"measurement": "change of variance of the time traces after adding antibiotic", "setting": "E. coli bacteria [1]; FIG. 3d", "result": "drops about three times"}, {"measurement": "fluctuations of the motion time trace (bacterial metabolic activity) after addition of antibiotic", "setting": "E. coli bacteria [1]; timeframe of a few seconds, FIG. 3c", "result": "No fluctuations are observed"}, {"measurement": "change in average amplitude of the amplitude spectrum of the time traces after adding antibiotic", "setting": "E. coli bacteria [2]; FIGS. 5a-b (FIG. 4a vs FIG. 4c)", "result": "tenfold decrease"}, {"measurement": "fluctuations of the motion time trace (bacterial metabolic activity) after addition of antibiotic", "setting": "E. coli bacteria [2]; adhered bacteria, timeframe of twelve minutes, FIGS. 4b, 4c", "result": "No fluctuations are observed"}, {"measurement": "change of variance of the time traces after adding antibiotic", "setting": "E. coli bacteria [2]; timeframe of twelve minutes, FIG. 4d", "result": "drops about hundred times"}]}]}
